Laboratory results: ChEMBL document CHEMBL4004838, “Design and synthesis of novel phenyl -1, 4-beta-carboline-hybrid molecules as potential anticancer agents” (Eur J Med Chem, 2017)

Key:
Type in all cases: functional
M14 [1] = assay: Growth inhibition of human M14 cells incubated for 48 hrs by sulforhodamine B assay; settings: M14, 48 h
UACC-62 [2] = assay: Growth inhibition of human UACC62 cells incubated for 48 hrs by sulforhodamine B assay; settings: UACC-62, 48 h
OVCAR-4 [3] = assay: Growth inhibition of human OVCAR4 cells incubated for 48 hrs by sulforhodamine B assay; settings: OVCAR-4, 48 h
CAKI-1 = assay: Growth inhibition of human Caki1 cells incubated for 48 hrs by sulforhodamine B assay; settings: CAKI-1, 48 h
Hs-578T = assay: Growth inhibition of human Hs 578T cells incubated for 48 hrs by sulforhodamine B assay
CCRF-CEM [4] = assay: Growth inhibition of human CCRF-CEM cells assessed as cell growth at 0.01 uM incubated for 48 hrs by sulforhodamine B assay relative to control; settings: read-out: Activity
HCT-15 = assay: Growth inhibition of human HCT15 cells assessed as cell growth at 0.01 uM incubated for 48 hrs by sulforhodamine B assay relative to control; settings: HCT-15, 48 h, read-out: Activity
SNB-19 [5] = assay: Growth inhibition of human SNB19 cells assessed as cell growth at 0.01 uM incubated for 48 hrs by sulforhodamine B assay relative to control; settings: SNB-19, 48 h, read-out: Activity
SK-MEL-28 = assay: Growth inhibition of human SK-MEL-28 cells assessed as cell growth at 0.01 uM incubated for 48 hrs by sulforhodamine B assay relative to control; settings: SK-MEL-28, 48 h, read-out: Activity
A498 = assay: Growth inhibition of human A498 cells assessed as cell growth at 0.01 uM incubated for 48 hrs by sulforhodamine B assay relative to control; settings: A498, 48 h, read-out: Activity
NCI-H23 [6] = assay: Growth inhibition of human NCI-H23 cells assessed as cell growth at 0.1 uM incubated for 48 hrs by sulforhodamine B assay relative to control; settings: NCI-H23, 48 h, read-out: Activity
HCT-116 = assay: Growth inhibition of human HCT116 cells assessed as cell growth at 0.1 uM incubated for 48 hrs by sulforhodamine B assay relative to control; settings: HCT-116, 48 h, read-out: Activity
HT-29 = assay: Growth inhibition of human HT-29 cells assessed as cell growth at 0.1 uM incubated for 48 hrs by sulforhodamine B assay relative to control; settings: HT-29, 48 h, read-out: Activity
OVCAR-4 [7] = assay: Growth inhibition of human OVCAR4 cells assessed as cell growth at 0.1 uM incubated for 48 hrs by sulforhodamine B assay relative to control; settings: OVCAR-4, 48 h, read-out: Activity
CCRF-CEM [8] = assay: Growth inhibition of human CCRF-CEM cells assessed as cell growth at 1 uM incubated for 48 hrs by sulforhodamine B assay relative to control; settings: read-out: Activity
K562 = assay: Growth inhibition of human K562 cells assessed as cell growth at 1 uM incubated for 48 hrs by sulforhodamine B assay relative to control; settings: K562, 48 h, read-out: Activity
HOP-62 = assay: Growth inhibition of human HOP62 cells assessed as cell growth at 1 uM incubated for 48 hrs by sulforhodamine B assay relative to control; settings: HOP-62, 48 h, read-out: Activity
SF-539 = assay: Growth inhibition of human SF539 cells assessed as cell growth at 1 uM incubated for 48 hrs by sulforhodamine B assay relative to control; settings: SF-539, 48 h, read-out: Activity
M14 [9] = assay: Growth inhibition of human M14 cells assessed as cell growth at 1 uM incubated for 48 hrs by sulforhodamine B assay relative to control; settings: M14, 48 h, read-out: Activity
UACC-257 = assay: Growth inhibition of human UACC257 cells assessed as cell growth at 1 uM incubated for 48 hrs by sulforhodamine B assay relative to control; settings: UACC-257, 48 h, read-out: Activity
OVCAR-3 = assay: Growth inhibition of human OVCAR3 cells assessed as cell growth at 1 uM incubated for 48 hrs by sulforhodamine B assay relative to control; settings: OVCAR-3, 48 h, read-out: Activity
ACHN = assay: Growth inhibition of human ACHN cells assessed as cell growth at 1 uM incubated for 48 hrs by sulforhodamine B assay relative to control; settings: read-out: Activity
HL-60(TB) = assay: Growth inhibition of human HL-60(TB) cells assessed as cell growth at 100 uM incubated for 48 hrs by sulforhodamine B assay relative to control; settings: HL-60, 48 h, read-out: Activity
NCI-H23 [10] = assay: Growth inhibition of human NCI-H23 cells assessed as cell growth at 100 uM incubated for 48 hrs by sulforhodamine B assay relative to control; settings: NCI-H23, 48 h, read-out: Activity
NCI-H522 = assay: Growth inhibition of human NCI-H522 cells assessed as cell growth at 100 uM incubated for 48 hrs by sulforhodamine B assay relative to control; settings: NCI-H522, 48 h, read-out: Activity
SNB-19 [11] = assay: Growth inhibition of human SNB19 cells assessed as cell growth at 100 uM incubated for 48 hrs by sulforhodamine B assay relative to control; settings: SNB-19, 48 h, read-out: Activity
UACC-62 [12] = assay: Growth inhibition of human UACC62 cells assessed as cell growth at 100 uM incubated for 48 hrs by sulforhodamine B assay relative to control; settings: UACC-62, 48 h, read-out: Activity
OVCAR-4 [13] = assay: Growth inhibition of human OVCAR4 cells assessed as cell growth at 100 uM incubated for 48 hrs by sulforhodamine B assay relative to control; settings: OVCAR-4, 48 h, read-out: Activity
TK-10 = assay: Growth inhibition of human TK10 cells assessed as cell growth at 100 uM incubated for 48 hrs by sulforhodamine B assay relative to control; settings: TK-10, 48 h, read-out: Activity
MDA-MB-468 = assay: Growth inhibition of human MDA-MB-468 cells assessed as cell growth at 100 uM incubated for 48 hrs by sulforhodamine B assay relative to control; settings: MDA-MB-468, 48 h, read-out: Activity
[14] = read-out: LC50 (the source's name)
[15] = read-out: pLC50 (the source's name) (converted)

Q: Which results are given for `c1ccc2[nH]c(-c3ccc(-c4nccc5c4[nH]c4ccccc45)cc3)nc2c1`?
A: GI50 (M14 [1]; read-out: GI50): 1.79 µM; CC50 (M14 [1]; [14]): 7.12 µM; TGI (M14 [1]; read-out: TGI): 3.57 µM; GI50 (M14 [1]; read-out: pGI50 (converted)): 1.78 µM; CC50 (M14 [1]; [15]): 7.08 µM; TGI (M14 [1]; read-out: pTGI (converted)): 3.55 µM; GI50 (UACC-62 [2]; read-out: GI50): 1.6 µM; CC50 (UACC-62 [2]; [14]): 7.62 µM; TGI (UACC-62 [2]; read-out: TGI): 3.49 µM; GI50 (UACC-62 [2]; read-out: pGI50 (converted)): 1.58 µM; CC50 (UACC-62 [2]; [15]): 7.59 µM; TGI (UACC-62 [2]; read-out: pTGI (converted)): 3.47 µM; GI50 (OVCAR-4 [3]; read-out: GI50): 2.27 µM; TGI (OVCAR-4 [3]; read-out: TGI): 7.75 µM; GI50 (OVCAR-4 [3]; read-out: pGI50 (converted)): 2.29 µM; CC50 (OVCAR-4 [3]; [15]): > 100 µM; TGI (OVCAR-4 [3]; read-out: pTGI (converted)): 7.76 µM; GI50 (CAKI-1; read-out: GI50): 2.41 µM; CC50 (CAKI-1; [14]): 3.68 µM; TGI (CAKI-1; read-out: TGI): 7.11 µM; GI50 (CAKI-1; read-out: pGI50 (converted)): 2.4 µM; CC50 (CAKI-1; [15]): 37.2 µM; TGI (CAKI-1; read-out: pTGI (converted)): 7.08 µM; GI50 (Hs-578T; read-out: GI50): 2.23 µM; TGI (Hs-578T; read-out: TGI): 5.93 µM; GI50 (Hs-578T; read-out: pGI50 (converted)): 2.24 µM; CC50 (Hs-578T; [15]): > 100 µM; TGI (Hs-578T; read-out: pTGI (converted)): 5.89 µM; growth at 0.01 µM (CCRF-CEM [4]): 102%; growth at 0.01 µM (HCT-15): 93%; growth at 0.01 µM (SNB-19 [5]): 91%; growth at 0.01 µM (SK-MEL-28): 96%; growth at 0.01 µM (A498): 96%; growth at 0.1 µM (NCI-H23 [6]): 93%; growth at 0.1 µM (HCT-116): 96%; growth at 0.1 µM (HT-29): 98%; growth at 0.1 µM (OVCAR-4 [7]): 98%; growth at 1 µM (CCRF-CEM [8]): 103%; growth at 1 µM (K562): 100%; growth at 1 µM (HOP-62): 88%; growth at 1 µM (SF-539): 98%; growth at 1 µM (M14 [9]): 92%; growth at 1 µM (UACC-257): 96%; growth at 1 µM (OVCAR-3): 92%; growth at 1 µM (ACHN): 101%; growth at 100 µM (HL-60(TB)): 40%; growth at 100 µM (NCI-H23 [10]): 54%; growth at 100 µM (NCI-H522): 46%; growth at 100 µM (SNB-19 [11]): 29%; growth at 100 µM (UACC-62 [12]): 57%; growth at 100 µM (OVCAR-4 [13]): 42%; growth at 100 µM (TK-10): 85%; growth at 100 µM (MDA-MB-468): 63%

Q: `c1ccc2c3c([nH]c2c1)C(c1ccc(C2NCCc4c2[nH]c2ccccc42)cc1)NCC3` (racemic) was tested. Which CC50 (M14 [1]; [14]) did it give?
A: 4.65 µM

Q: What about the GI50 (M14 [1]; read-out: pGI50 (converted)) of the same compound?
A: 0.407 µM

Q: What about the CC50 (M14 [1]; [15]) of the same compound?
A: 4.68 µM

Q: What about the TGI (M14 [1]; read-out: pTGI (converted)) of the same compound?
A: 1.58 µM

Q: And the CC50 (UACC-62 [2]; [14])?
A: 5.15 µM

Q: What about the GI50 (UACC-62 [2]; read-out: pGI50 (converted)) of the same compound?
A: 0.741 µM

Q: And the CC50 (UACC-62 [2]; [15])?
A: 5.13 µM

Q: What about the TGI (UACC-62 [2]; read-out: pTGI (converted)) of the same compound?
A: 2.14 µM

Q: What about the GI50 (OVCAR-4 [3]; read-out: GI50) of the same compound?
A: 1.14 µM

Q: What about the CC50 (OVCAR-4 [3]; [14]) of the same compound?
A: 5.61 µM

Q: And the TGI (OVCAR-4 [3]; read-out: TGI)?
A: 2.53 µM

Q: What about the GI50 (OVCAR-4 [3]; read-out: pGI50 (converted)) of the same compound?
A: 1.15 µM

Q: What about the CC50 (OVCAR-4 [3]; [15]) of the same compound?
A: 5.62 µM

Q: And the TGI (OVCAR-4 [3]; read-out: pTGI (converted))?
A: 2.51 µM

Q: What about the GI50 (CAKI-1; read-out: GI50) of the same compound?
A: 1.66 µM

Q: And the CC50 (CAKI-1; [14])?
A: 9.82 µM

Q: And the TGI (CAKI-1; read-out: TGI)?
A: 4.03 µM

Q: And the GI50 (CAKI-1; read-out: pGI50 (converted))?
A: 1.66 µM

Q: What about the CC50 (CAKI-1; [15]) of the same compound?
A: 9.77 µM

Q: What about the TGI (CAKI-1; read-out: pTGI (converted)) of the same compound?
A: 4.07 µM

Q: What about the GI50 (Hs-578T; read-out: GI50) of the same compound?
A: 1.43 µM

Q: What about the CC50 (Hs-578T; [14]) of the same compound?
A: 11.5 µM

Q: And the TGI (Hs-578T; read-out: TGI)?
A: 3.82 µM

Q: What about the GI50 (Hs-578T; read-out: pGI50 (converted)) of the same compound?
A: 1.45 µM

Q: What about the CC50 (Hs-578T; [15]) of the same compound?
A: 11.5 µM

Q: What about the TGI (Hs-578T; read-out: pTGI (converted)) of the same compound?
A: 3.8 µM

Q: And the growth at 0.01 µM (CCRF-CEM [4])?
A: 98%

Q: And the growth at 0.01 µM (HCT-15)?
A: 94%

Q: What about the growth at 0.01 µM (SNB-19 [5]) of the same compound?
A: 97%

Q: And the growth at 0.01 µM (SK-MEL-28)?
A: 95%

Q: And the growth at 0.01 µM (A498)?
A: 73%

Q: And the growth at 0.1 µM (NCI-H23 [6])?
A: 88%

Q: What about the growth at 0.1 µM (HCT-116) of the same compound?
A: 89%

Q: What about the growth at 0.1 µM (HT-29) of the same compound?
A: 103%

Q: And the growth at 0.1 µM (OVCAR-4 [7])?
A: 91%

Q: What about the growth at 1 µM (CCRF-CEM [8]) of the same compound?
A: 21%

Q: What about the growth at 1 µM (K562) of the same compound?
A: 52%

Q: And the growth at 1 µM (HOP-62)?
A: 68%

Q: And the growth at 1 µM (SF-539)?
A: 88%

Q: What about the growth at 1 µM (M14 [9]) of the same compound?
A: 21%

Q: And the growth at 1 µM (UACC-257)?
A: 103%

Q: And the growth at 1 µM (OVCAR-3)?
A: 65%

Q: What about the growth at 1 µM (ACHN) of the same compound?
A: 42%

Q: And the growth at 100 µM (HL-60(TB))?
A: 83%

Q: And the growth at 100 µM (NCI-H23 [10])?
A: 86%

Q: And the growth at 100 µM (NCI-H522)?
A: 81%

Q: And the growth at 100 µM (SNB-19 [11])?
A: 88%

Q: What about the growth at 100 µM (UACC-62 [12]) of the same compound?
A: 93%

Q: And the growth at 100 µM (OVCAR-4 [13])?
A: 93%

Q: And the growth at 100 µM (TK-10)?
A: -96%

Q: What about the growth at 100 µM (MDA-MB-468) of the same compound?
A: -78%
